Where two headings read alike, the source gives them in different places.
Columns and labels:
[1] = test system: anaesthetized dog; assay: Antiangorous activity on anaesthetized dog: consumption of oxygen in the left ventricule and cardiac effort (KATZ's index); format: in vivo; settings: for inhibition in vivo at 0.625 mg/kg / inhibition in vivo at 2.5 mg/kg / inhibition in vivo at […] / inhibition in vivo at 2.3 mg/kg / inhibition in vivo at 0.12 mg/kg: Canis lupus familiaris, iv; for inhibition in vivo at […]: 0.15 mg/kg i.v. slow perfusion
Description: The antiangorous activity was tested on an anaesthetized dog (sodium pentobarbital 30 mg/kg/i.v.).
The consumption of oxygen in the left ventricule was estimated by the product of the coronary venous flow and the coronary arteriovenous difference in oxygen (% volume).
The coronary venous flow was measured at the coronary venous sinus by means of a modified Morawitz cannula, introduced under radioscopic control.
The cardiac effort was estimated according to KATZ's index, by the product of the average arterial pressure and the cardiac frequency.
The cardiac frequency was estimated from the electrocardiogram recorded with D2 derivation.
It should be noted that the compounds tested were injected intravenously with slow perfusion.

[2] = in vivo; settings: for mortality: read-out: Toxicity (Mortality); for LD50: read-out: Toxicity: LD50
Excerpt: *LD50 or percentage of mortality which is given between brackets

[3] = 0.625 mg/kg i.v. slow perfusion
[4] = 2.5 mg/kg i.v. slow perfusion, read-out: Diminution in consumption of O2
[5] = 2.5 mg/kg i.v. slow perfusion, read-out: Diminution in the cardiac effort (IK)
[6] = read-out: Diminution in consumption of O2
[7] = read-out: Diminution in the cardiac effort (IK)

COc1cc(/C=C/C(=O)N2CCN(CC(O)COc3ccc(NC(=O)C(C)(C)C)c4c3OCCO4)CC2)cc(OC)c1OC (stereo not shown) [770 614]
Diminution in consumption of O2: in time [1, 3]: 30 min | Diminution in the cardiac effort (IK): in time [1, 3]: 30 min | inhibition in vivo at 0.625 mg/kg ([1]; 0.625 mg/kg i.v. slow perfusion, read-out: Diminution in consumption of O2): 49% | inhibition in vivo at 0.625 mg/kg ([1]; 0.625 mg/kg i.v. slow perfusion, read-out: Diminution in the cardiac effort (IK)): 45% | mortality ([2]; po, p.o.: 2000 mg/kg): 11%

COc1cc(/C=C/C(=O)N2CCN(CC(O)COc3ccc(C#N)c4c3OCCO4)CC2)cc(OC)c1OC (stereo not shown) [770 585]
Diminution in consumption of O2: in time ([1]; 2.5 mg/kg i.v. slow perfusion): 30 min | Diminution in the cardiac effort (IK): in time ([1]; 2.5 mg/kg i.v. slow perfusion): 30 min | inhibition in vivo at 2.5 mg/kg [1, 4]: 75% | inhibition in vivo at 2.5 mg/kg [1, 5]: 41% | mortality ([2]; po, p.o.: 2000 mg/kg): 0%

CNC(=O)Nc1ccc(OCC(O)CN2CCN(C(=O)/C=C/c3cc(OC)c(OC)c(OC)c3)CC2)c(OC)c1OC (stereo not shown) [770 992]
Diminution in consumption of O2: in time ([1]; 2.5 mg/kg i.v. slow perfusion): 40 min | Diminution in the cardiac effort (IK): in time ([1]; 2.5 mg/kg i.v. slow perfusion): 30 min | inhibition in vivo at 2.5 mg/kg [1, 4]: 77% | inhibition in vivo at 2.5 mg/kg [1, 5]: 36% | mortality ([2]; iv, 400 mg/kg i.v.): 0%

COc1cc(/C=C/C(=O)N2CCN(CC(O)COc3ccc(NC(=O)NC(C)C)c4c3OCCO4)CC2)cc(OC)c1OC (stereo not shown) [770 630]
inhibition in vivo at […] [1, 6]: 58% | inhibition in vivo at […] [1, 7]: 32% | mortality ([2]; iv, 400 mg/kg i.v.): 40%

COc1cc(/C=C/C(=O)N2CCN(CC(O)COc3ccc(Cl)cc3)CC2)cc(OC)c1OC (stereo not shown) [760 476]
Diminution in consumption of O2: in time ([1]; 2.3 mg/kg i.v. slow perfusion): 23 min | Diminution in the cardiac effort (IK): in time ([1]; 2.3 mg/kg i.v. slow perfusion): 15 min | inhibition in vivo at 2.3 mg/kg ([1]; 2.3 mg/kg i.v. slow perfusion, read-out: Diminution in consumption of O2): 70% | inhibition in vivo at 2.3 mg/kg ([1]; 2.3 mg/kg i.v. slow perfusion, read-out: Diminution in the cardiac effort (IK)): 5% | LD50 ([2]; iv): 185 mg/kg

COc1cc(/C=C/C(=O)N2CCN(CC(O)COc3ccc(NC(C)=O)c4c3OCCO4)CC2)cc(OC)c1OC (stereo not shown) [760 868]
Diminution in consumption of O2: in time ([1]; 0.12 mg/kg i.v. slow perfusion): 30 min | Diminution in the cardiac effort (IK): in time ([1]; 0.12 mg/kg i.v. slow perfusion): 30 min | inhibition in vivo at 0.12 mg/kg ([1]; 0.12 mg/kg i.v. slow perfusion, read-out: Diminution in consumption of O2): 33% | inhibition in vivo at 0.12 mg/kg ([1]; 0.12 mg/kg i.v. slow perfusion, read-out: Diminution in the cardiac effort (IK)): 18% | mortality ([2]; iv, 215 mg/kg i.v.): 40%

COc1cc(/C=C/C(=O)N2CCN(CC(O)COc3ccc(CC#N)c4c3OCCO4)CC2)cc(OC)c1OC (stereo not shown) [770 188]
LD50 ([2]; iv): 219 mg/kg

CNC(=O)Nc1cc(Cl)c(OCC(O)CN2CCN(C(=O)/C=C/c3cc(OC)c(OC)c(OC)c3)CC2)c(Cl)c1 (stereo not shown) [780 292]
Diminution in consumption of O2: in time ([1]; 2.5 mg/kg i.v. slow perfusion): 90 min | Diminution in the cardiac effort (IK): in time ([1]; 2.5 mg/kg i.v. slow perfusion): 45 min | inhibition in vivo at 2.5 mg/kg [1, 4]: 59% | inhibition in vivo at 2.5 mg/kg [1, 5]: 34%

COc1cc(/C=C/C(=O)N2CCN(CC(O)COc3ccc(C(C)=O)c4c3OCCCO4)CC2)cc(OC)c1OC (stereo not shown) [780 241]
inhibition in vivo at […] [1, 6]: 30% | inhibition in vivo at […] [1, 7]: 13%

COc1cc(/C=C/C(=O)N2CCN(CC(O)COc3ccc(C(=O)c4ccccc4)cc3)CC2)cc(OC)c1OC (stereo not shown) [771 318]
Diminution in consumption of O2: in time ([1]; 2.5 mg/kg i.v. slow perfusion): 60 min | Diminution in the cardiac effort (IK): in time ([1]; 2.5 mg/kg i.v. slow perfusion): 15 min | inhibition in vivo at 2.5 mg/kg [1, 4]: 63% | inhibition in vivo at 2.5 mg/kg [1, 5]: 31%

COc1cc(/C=C/C(=O)N2CCN(CC(O)COc3ccc(C(C)=O)cc3Cl)CC2)cc(OC)c1OC (stereo not shown) [780 401]
Diminution in consumption of O2: in time ([1]; 2.5 mg/kg i.v. slow perfusion): 30 min | inhibition in vivo at 2.5 mg/kg [1, 4]: 64% | inhibition in vivo at 2.5 mg/kg [1, 5]: 6%

COc1cc(/C=C/C(=O)N2CCN(CC(O)COc3c(Cl)cc(C(C)=O)cc3Cl)CC2)cc(OC)c1OC (stereo not shown) [780 339]
Diminution in consumption of O2: in time ([1]; 2.5 mg/kg i.v. slow perfusion): 45 min | Diminution in the cardiac effort (IK): in time ([1]; 2.5 mg/kg i.v. slow perfusion): 40 min | inhibition in vivo at 2.5 mg/kg [1, 4]: 74% | inhibition in vivo at 2.5 mg/kg [1, 5]: 42%

COc1cc(/C=C/C(=O)N2CCN(CC(O)COc3ccc(NC(C)=O)c4ccccc34)CC2)cc(OC)c1OC (stereo not shown) [771 036]
Diminution in the cardiac effort (IK): in time ([1]; 2.5 mg/kg i.v. slow perfusion): 15 min | inhibition in vivo at 2.5 mg/kg [1, 4]: 15% | inhibition in vivo at 2.5 mg/kg [1, 5]: 25%
